Bounds are passed on as bounds.

Chain of ROCK2 (O75116 whole entry, species assumed): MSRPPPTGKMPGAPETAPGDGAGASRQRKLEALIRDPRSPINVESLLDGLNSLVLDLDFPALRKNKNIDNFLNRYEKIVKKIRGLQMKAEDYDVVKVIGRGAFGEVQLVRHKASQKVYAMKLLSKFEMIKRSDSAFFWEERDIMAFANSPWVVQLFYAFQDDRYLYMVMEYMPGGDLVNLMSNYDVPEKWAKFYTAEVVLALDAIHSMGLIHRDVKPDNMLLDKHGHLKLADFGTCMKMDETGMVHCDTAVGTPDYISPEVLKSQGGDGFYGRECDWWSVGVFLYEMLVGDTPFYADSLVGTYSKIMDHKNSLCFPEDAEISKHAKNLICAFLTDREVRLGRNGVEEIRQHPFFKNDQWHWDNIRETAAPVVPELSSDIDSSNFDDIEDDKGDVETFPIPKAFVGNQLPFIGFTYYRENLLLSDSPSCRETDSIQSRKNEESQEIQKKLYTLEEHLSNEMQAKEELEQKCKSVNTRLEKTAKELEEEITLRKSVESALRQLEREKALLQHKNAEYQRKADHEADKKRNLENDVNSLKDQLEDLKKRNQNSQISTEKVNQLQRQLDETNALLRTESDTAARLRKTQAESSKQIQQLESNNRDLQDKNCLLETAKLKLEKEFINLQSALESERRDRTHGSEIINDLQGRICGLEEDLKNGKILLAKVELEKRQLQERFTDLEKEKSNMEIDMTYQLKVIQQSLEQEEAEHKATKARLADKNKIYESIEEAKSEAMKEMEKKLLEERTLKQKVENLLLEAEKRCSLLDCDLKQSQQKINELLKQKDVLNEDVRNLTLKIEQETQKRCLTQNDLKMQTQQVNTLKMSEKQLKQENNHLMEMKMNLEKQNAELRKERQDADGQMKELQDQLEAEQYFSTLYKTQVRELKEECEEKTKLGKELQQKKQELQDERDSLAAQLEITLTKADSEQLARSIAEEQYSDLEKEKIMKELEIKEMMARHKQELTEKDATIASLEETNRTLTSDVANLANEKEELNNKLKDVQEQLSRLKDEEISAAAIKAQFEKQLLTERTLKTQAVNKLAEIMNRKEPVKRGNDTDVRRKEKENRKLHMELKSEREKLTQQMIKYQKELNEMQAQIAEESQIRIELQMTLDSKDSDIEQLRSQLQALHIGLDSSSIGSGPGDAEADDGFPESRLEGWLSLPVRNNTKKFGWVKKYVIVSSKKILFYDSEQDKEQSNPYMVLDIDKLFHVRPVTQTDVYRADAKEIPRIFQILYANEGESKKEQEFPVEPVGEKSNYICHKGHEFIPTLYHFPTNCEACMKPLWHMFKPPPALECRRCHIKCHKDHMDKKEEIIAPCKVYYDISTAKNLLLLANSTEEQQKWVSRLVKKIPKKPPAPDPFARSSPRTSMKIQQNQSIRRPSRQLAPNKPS

This experiment concerns the target ROCK2 (Homo sapiens, UniProt O75116). Description: ROCK2 kinase inhibition assay (Caliper LABCHIP, FITC peptide substrate). The experiment is classed as biochemical. As to conditions: 5 μM ATP, 1.5 μM peptide substrate; value ranges. An outline of the steps:
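Dose-response curves gave IC50 from inhibition of peptide phosphorylation, measured by LabChip separation after EDTA stop. Reactions used 1.5 μM FITC-labelled peptide, 5 μM ATP, 20 mM HEPES pH 7.5 with MgCl2, Brij-35, DTT, and under 2% DMSO.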
With `COc1cc(N2CCN(Cc3ccccc3)C2=O)ccc1-c1cn[nH]c1` [Example 18, 1-Benzyl-3-(3-methoxy-4-(1H-pyrazol-4-yl)phenyl)imidazolidin-2-one], the IC50 (in general, the midpoint of a concentration-inhibition curve) was in the range of 20.1 to 200 nM.

As to `COc1cc(F)cc(C(C)N2CCN(c3ccc(-c4cn[nH]c4)cc3)C2=O)c1` (single isomer, unassigned) [Example 198, 1-(4-(1H-pyrazol-4-yl)-phenyl)-3-(1-(3-fluoro-5-methoxy-phenyl)ethyl) imidazolidin-2-one], the IC50 fell in the range of 200 to 2000 nM.

The molecule `COc1cc(N2CCN(CCc3ccc(F)cc3)C2=O)ccc1-c1cn[nH]c1` [Example 8, 1-(4-Fluorophenethyl)-3-(3-methoxy-4-(1H-pyrazol-4-yl)phenyl)imidazolidin-2-one] gave an IC50 of 200 to 2000 nM.

With `O=C1N(c2ccc(-c3cn[nH]c3)cc2)CCN1C(CO)c1ccccc1` (single isomer, unassigned) [Example 162, 1-(4-(1H-pyrazol-4-yl)phenyl)-3-(2-hydroxy-1-phenylethyl) imidazolidin-2-one], the IC50 is 200 to 2000 nM.

Take `COc1c(F)cccc1Cn1ccn(-c2ccc(-c3cn[nH]c3)cc2)c1=O` [Example 405, 1-(4-(1H-pyrazol-4-yl)phenyl)-3-(3-fluoro-2-methoxybenzyl)-1H-imidazol-2(3H)-one]: the IC50 is 20.1 to 200 nM.

`CCOc1cc(N2CCN(Cc3cccc(OC)c3)C2=O)ncc1-c1cn[nH]c1` [Example 473, 1-(4-ethoxy-5-(1H-pyrazol-4-yl)pyridin-2-yl)-3-(3-methoxybenzyl)imidazolidin-2-one] registered an IC50 of 20.1 to 200 nM.

The molecule `Cc1cc(F)ccc1Cn1ccn(-c2ccc(-c3cn[nH]c3)cc2)c1=O` [Example 403, 1-(4-(1H-pyrazol-4-yl)phenyl)-3-(4-fluoro-2-methylbenzyl)-1H-imidazol-2(3H)-one] yielded an IC50 of 20.1 to 200 nM.

The molecule `COc1cccc(C(CO)N2CCN(c3ccc(-c4cn[nH]c4)c(F)c3)C2=O)c1` (stereo not drawn) [Example 463, 1-(3-fluoro-4-(1H-pyrazol-4-yl)phenyl)-3-(2-hydroxy-1-(3-methoxyphenyl)ethyl)imidazolidin-2-one] came in with an IC50 of 2.1 to 20 nM.

`COc1cc(CN2CCN(c3ccc(-c4cn[nH]c4)c(OC)n3)C2=O)ccc1F` [Example 214, 1-(4-fluoro-3-methoxybenzyl)-3-(6-methoxy-5-(1H-pyrazol-4-yl)pyridin-2-yl)imidazolidin-2-one] had an IC50 below 2 nM.

In turn, `COc1cc(F)cc(C(C)N2CCN(c3ccc(-c4cn[nH]c4)c(C)n3)C2=O)c1` (single isomer, unassigned) [Example 206, 1-(1-(3-fluoro-5-methoxy-phenyl)-ethyl)-3-(6-methyl-5-(1H-pyrazol-4-yl)pyridin-2-yl)-imidazolidin-2-one] displayed an IC50 below 2 nM.

The molecule `COc1cccc(CN2C(=O)N(c3ccc(-c4cn[nH]c4)cc3)CC2C(C)(C)O)c1` (single isomer, unassigned; (-)) [Example 44, (−)-1-(4-(1H-Pyrazol-4-yl)phenyl)-4-(2-hydroxypropan-2-yl)-3-(3-methoxybenzyl)imidazolidin-2-one] yielded an IC50 below 2 nM.

Molecule `O=C1N(Cc2ccccn2)CCN1c1ccc(-c2cn[nH]c2)cn1` [Example 243, 1-(5-(1H-pyrazol-4-yl)pyridin-2-yl)-3-(pyridin-2-ylmethyl)imidazolidin-2-one] yielded an IC50 of 200 to 2000 nM.

Molecule `O=C1N(Cc2cccc(F)c2)CCN1c1ccc(-c2ccncc2F)cc1` [Example 49, 1-(3-fluorobenzyl)-3-(4-(3-fluoropyridin-4-yl)phenyl)imidazolidin-2-one] yielded an IC50 of 20.1 to 200 nM.

Regarding `O=c1n(Cc2cc(F)ccc2F)ccn1-c1ccc(-c2cn[nH]c2)cc1` [Example 408, 1-(4-(1H-pyrazol-4-yl)phenyl)-3-(2,5-difluorobenzyl)-1H-imidazol-2(3H)-one], the IC50 was 20.1 to 200 nM.

Consider `CCc1nc(N2CCN(C(C)c3cc(F)cc(OC)c3)C2=O)ccc1-c1cn[nH]c1` (single isomer, unassigned) [Example 269, 1-(6-ethyl-5-(1H-pyrazol-4-yl)pyridin-2-yl)-3-(1-(3-fluoro-5-methoxyphenyl)ethyl)imidazolidin-2-one], for which the IC50 was 20.1 to 200 nM.

These data come from US10123993B2, “Cyclic ureas as inhibitors of rock” (BRISTOL-MYERS SQUIBB COMPANY, priority 2015, dated 2018).
